Laboratory results from the NIST ThermoML archive (doi:10.1016/j.jct.2013.03.007).
± gives the expanded uncertainty stated by the source.

Settings: 101.33 kPa, Liquid, Vibrating tube method

Row | Compound | mass density (293.2 K) [kg/m3] | mass density (298.2 K) [kg/m3] | mass density (303.2 K) [kg/m3] | mass density (308.2 K) [kg/m3] | mass density (313.2 K) [kg/m3] | mass density (318.2 K) [kg/m3] | mass density (323.2 K) [kg/m3] | mass density (328.2 K) [kg/m3] | mass density (333.2 K) [kg/m3] | mass density (338.2 K) [kg/m3] | mass density (343.2 K) [kg/m3] | mass density (348.2 K) [kg/m3] | mass density (353.2 K) [kg/m3] | mass density (358.2 K) [kg/m3] | mass density (288.2 K) [kg/m3]
1 | CCCCn1cc[n+](C)c1.F[B-](F)(F)F [1-butyl-3-methylimidazolium tetrafluoroborate] | 1204.1 ± 1.3 | 1201 ± 1.3 | 1197.5 ± 1.3 | 1194 ± 1.3 | 1190.4 ± 1.3 | 1186.9 ± 1.2 | 1183.4 ± 1.2 | 1180 ± 1.2 | 1176.5 ± 1.2 | 1173 ± 1.2 | 1169.6 ± 1.2 | 1166.1 ± 1.2 | 1162.7 ± 1.2 | 1159.3 ± 1.2 | –
2 | CCCCn1cc[n+](C)c1.F[P-](F)(F)(F)(F)F [1-butyl-3-methylimidazolium hexafluorophosphate] | 1372.1 ± 0.6 | 1367.8 ± 0.6 | 1363.6 ± 0.5 | 1359.5 ± 0.5 | 1355.6 ± 0.5 | 1351.3 ± 0.5 | 1347.2 ± 0.5 | 1343.1 ± 0.5 | 1339 ± 0.5 | 1335 ± 0.5 | 1330.9 ± 0.5 | 1326.8 ± 0.5 | 1322.8 ± 0.5 | – | 1376.4 ± 0.6
